For five molecules, IC50 and inhibition results are on record in US10947201B2, “Certain chemical entities, compositions, and methods” (NEUPHARMA, INC., priority 2015, dated 2021).

pIC50: −log10 of the molar value.

The test system of one assay is A431 cells. The assay can be described thus: MTT cell growth inhibition assay, A431. In kind it is cell-based. As to conditions: Homo sapiens, A-431, 72 h. The procedure: (§1) Inhibition of cell growth by compounds was measured using MTT assay (Mosmann, T., Journal of Immunological Methods, 1983, 65, 55-63). Tumor cell lines were purchased from ATCC (American Type Culture Collection, Manassas, Va.). All cell lines were maintained in RPMI 1640 (Hyclone) supplemented with 10% fetal bovine serum (FBS, Hyclone), glutamine (2 mM, Hyclone), and antibiotics (penicillin 100 U/mL and streptomycin 50 μg/mL) at 37° C. in a humidified atmosphere of 5% CO2 in air. Taxol (as a positive control, Sigma) and compounds were dissolved in DMSO (Sigma), and the final concentration of DMSO in the medium was 1%. Tumor cells were plated in 96-well plates at densities of about 4000 cells/well of a 96-well plate and allowed to adhere/grow for 24 h. They were then treated with various concentrations of drug for 72 h. 3-(4,5-Dimethylthiazol-2-yl)-2,5-diphenyltetrazolium bromide (MTT, Sigma) was used to determine the number of viable cells at the time of compound addition and the number of cells remaining after 72 h compound exposure. The number of cells remaining after 72 h was compared to the number of viable cells at the time of compound addition by measuring the absorbance at 570 nm, allowing for the calculation of growth inhibition.
(§2) All concentrations of compounds were tested in triplicate and controls were averaged over 4 wells. IC50 was calculated by plotting the concentration of compound vs the percentage of inhibition in treated wells using GraphPad Prism 5.
(§3) Tables 5 show IC50 values of several compounds of the invention in A549, A431, H1299, and H1975 human cancer cells. A549 cells have a mutation on KRAS, H3255 cells have L858R mutation, and H1975 cells have double EGFR mutations (L858R/T790M). The scale utilized in Table 5 is as follows: +++ less than 100 nM; ++ between 100 nM and 500 nM; and + greater than 500 nM.

Another assay deals with T1, BTK (Homo sapiens, UniProt Q06187).
T1 construct: purchased Invitrogen
T1 sequence (Q06187 whole entry): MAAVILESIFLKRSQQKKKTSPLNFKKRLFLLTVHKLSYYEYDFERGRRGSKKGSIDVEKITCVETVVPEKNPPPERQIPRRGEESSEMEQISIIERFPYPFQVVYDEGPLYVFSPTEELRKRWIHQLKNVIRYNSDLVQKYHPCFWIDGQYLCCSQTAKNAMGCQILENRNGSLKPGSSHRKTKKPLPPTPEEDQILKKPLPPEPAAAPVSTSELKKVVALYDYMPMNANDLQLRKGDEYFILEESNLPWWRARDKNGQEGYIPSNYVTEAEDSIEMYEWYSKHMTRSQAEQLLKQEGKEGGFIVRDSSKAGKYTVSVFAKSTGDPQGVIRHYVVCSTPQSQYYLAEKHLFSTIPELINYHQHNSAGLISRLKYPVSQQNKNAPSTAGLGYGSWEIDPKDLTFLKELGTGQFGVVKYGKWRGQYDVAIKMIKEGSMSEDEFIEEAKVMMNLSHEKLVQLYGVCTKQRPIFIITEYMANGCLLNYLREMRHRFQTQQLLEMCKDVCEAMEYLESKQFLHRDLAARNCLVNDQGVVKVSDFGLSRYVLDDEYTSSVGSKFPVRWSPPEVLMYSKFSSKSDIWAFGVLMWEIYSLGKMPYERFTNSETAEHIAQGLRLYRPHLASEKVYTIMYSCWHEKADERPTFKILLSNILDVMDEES
The assay can be described thus: Z'-LYTE kinase inhibition assay (Invitrogen), BTK. Type of assay: biochemical. To be noted: for inhibition at 0.1 µM: compound at 100 nM, [ATP] = Km. Summed up: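 Z′-LYTE FRET read-out with Tyr 01 peptide 2 μM and 1.04-10.4 ng kinase in HEPES pH 7.5, MgCl2, EGTA, BRIJ-35; 1 h room temperature reaction, then 1 h development.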

A further assay deals with T2, EGFR (ErbB1) T790M L858R (Homo sapiens, UniProt P00533, L858R/T790M).
T2 construct: purchased Invitrogen
T2 sequence (P00533 25-1210 T790M/L858R): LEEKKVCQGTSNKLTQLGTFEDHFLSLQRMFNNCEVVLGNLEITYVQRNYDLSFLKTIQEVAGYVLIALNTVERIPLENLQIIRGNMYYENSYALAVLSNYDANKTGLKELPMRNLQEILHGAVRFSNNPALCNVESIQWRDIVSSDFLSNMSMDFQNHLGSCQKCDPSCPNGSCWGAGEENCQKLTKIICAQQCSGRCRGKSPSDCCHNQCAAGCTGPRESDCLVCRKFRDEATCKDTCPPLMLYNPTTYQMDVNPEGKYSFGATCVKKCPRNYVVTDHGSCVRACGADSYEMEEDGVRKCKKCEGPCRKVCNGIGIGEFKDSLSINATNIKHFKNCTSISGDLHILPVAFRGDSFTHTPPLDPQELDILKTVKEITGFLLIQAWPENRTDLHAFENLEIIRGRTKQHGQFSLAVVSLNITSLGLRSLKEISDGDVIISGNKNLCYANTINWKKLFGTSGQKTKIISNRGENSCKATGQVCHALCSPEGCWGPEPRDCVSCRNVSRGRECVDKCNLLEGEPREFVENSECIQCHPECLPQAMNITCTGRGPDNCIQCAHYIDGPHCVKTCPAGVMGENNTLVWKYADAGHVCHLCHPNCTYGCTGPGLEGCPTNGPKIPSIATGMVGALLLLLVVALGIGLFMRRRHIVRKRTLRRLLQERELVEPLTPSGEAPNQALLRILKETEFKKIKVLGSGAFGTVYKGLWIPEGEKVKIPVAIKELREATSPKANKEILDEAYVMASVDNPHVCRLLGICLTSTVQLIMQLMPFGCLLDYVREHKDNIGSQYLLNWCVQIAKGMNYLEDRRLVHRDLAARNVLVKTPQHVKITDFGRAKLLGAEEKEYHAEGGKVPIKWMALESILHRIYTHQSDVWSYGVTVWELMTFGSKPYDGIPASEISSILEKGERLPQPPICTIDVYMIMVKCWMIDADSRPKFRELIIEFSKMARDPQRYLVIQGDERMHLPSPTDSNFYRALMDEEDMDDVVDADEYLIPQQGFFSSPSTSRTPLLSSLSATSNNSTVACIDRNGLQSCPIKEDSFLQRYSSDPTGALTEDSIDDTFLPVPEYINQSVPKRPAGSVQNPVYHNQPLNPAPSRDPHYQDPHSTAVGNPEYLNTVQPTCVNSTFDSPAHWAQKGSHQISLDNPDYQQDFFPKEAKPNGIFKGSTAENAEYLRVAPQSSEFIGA
The assay can be described thus: Z'-LYTE kinase inhibition assay (Invitrogen), EGFR L858R/T790M. In kind it is biochemical. To be noted: for inhibition at 0.1 µM: compound at 100 nM, [ATP] = Km. In outline:
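Z′-LYTE FRET assay with EGFR L858R/T790M (0.38-4.22 ng) and 2 μM Tyr 04 peptide in 50 mM HEPES pH 7.0, 10 mM MgCl2, 1 mM EGTA, 1% DMSO; 1 h kinase reaction at room temperature, then 1 h development. 10-point 3-fold titrations; IC50 from concentration vs % inhibition.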

The test system of another assay is H1975 cells. The assay can be described thus: MTT cell growth inhibition assay, H1975. Type of assay: cell-based. To be noted: Homo sapiens, NCI-H1975, H1975 cells (EGFR L858R/T790M), 72 h. The method, then: as §1, §2, §3
The next assay relates to H3255 cells. The assay can be described thus: MTT cell growth inhibition assay, H3255. In kind it is cell-based. As to conditions: Homo sapiens, NCI-H3255, H3255 cells (L858R mutation), 72 h. The procedure: as §1, §2, §3
The subject of another assay is A549 cells. As to the kind of experiment: MTT cell growth inhibition assay, A549. Type of assay: cell-based. As to conditions: Homo sapiens, A549 cells (KRAS mutation), 72 h. The procedure:
as §1, §2, §3

The target of another assay is T3, EGFR (ErbB1) (Homo sapiens, UniProt P00533).
T3 construct: purchased Invitrogen
T3 sequence (P00533 25-1210): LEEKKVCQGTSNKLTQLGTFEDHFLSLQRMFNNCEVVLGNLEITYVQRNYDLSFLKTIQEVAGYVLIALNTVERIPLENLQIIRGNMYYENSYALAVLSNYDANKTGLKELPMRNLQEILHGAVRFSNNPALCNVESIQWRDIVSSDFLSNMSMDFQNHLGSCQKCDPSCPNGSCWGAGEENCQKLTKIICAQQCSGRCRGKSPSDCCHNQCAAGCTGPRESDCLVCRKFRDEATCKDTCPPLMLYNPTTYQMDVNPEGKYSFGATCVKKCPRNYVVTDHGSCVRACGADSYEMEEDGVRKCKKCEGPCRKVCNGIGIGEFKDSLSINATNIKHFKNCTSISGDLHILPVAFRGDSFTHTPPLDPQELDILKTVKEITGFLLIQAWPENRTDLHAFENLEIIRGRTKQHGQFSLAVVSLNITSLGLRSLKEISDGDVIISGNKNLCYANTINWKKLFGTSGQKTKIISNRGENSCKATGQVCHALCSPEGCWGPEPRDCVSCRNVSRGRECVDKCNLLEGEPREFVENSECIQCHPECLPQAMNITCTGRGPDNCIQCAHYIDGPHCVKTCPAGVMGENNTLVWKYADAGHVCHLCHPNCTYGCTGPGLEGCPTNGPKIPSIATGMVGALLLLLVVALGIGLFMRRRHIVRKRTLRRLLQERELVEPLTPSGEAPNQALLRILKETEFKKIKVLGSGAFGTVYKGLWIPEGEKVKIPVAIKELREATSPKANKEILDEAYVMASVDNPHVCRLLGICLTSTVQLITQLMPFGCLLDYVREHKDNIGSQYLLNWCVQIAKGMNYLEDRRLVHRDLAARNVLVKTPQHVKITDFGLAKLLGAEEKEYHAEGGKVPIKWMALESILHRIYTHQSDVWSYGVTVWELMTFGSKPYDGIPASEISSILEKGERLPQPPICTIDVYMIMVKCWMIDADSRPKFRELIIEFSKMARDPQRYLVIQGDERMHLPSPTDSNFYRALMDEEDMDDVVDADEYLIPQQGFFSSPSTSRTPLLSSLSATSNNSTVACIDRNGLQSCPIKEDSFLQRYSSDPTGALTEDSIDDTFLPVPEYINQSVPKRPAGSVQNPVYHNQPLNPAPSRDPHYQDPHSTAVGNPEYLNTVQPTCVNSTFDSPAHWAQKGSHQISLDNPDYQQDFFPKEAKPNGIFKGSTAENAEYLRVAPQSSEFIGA
As to the kind of experiment: Z'-LYTE kinase inhibition assay (Invitrogen), EGFR. Type of assay: biochemical. To be noted: for inhibition at 0.1 µM: compound at 100 nM, [ATP] = Km. Summed up:
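Z'-LYTE FRET assay: 1.1-5.25 ng EGFR with 2 μM Tyr 04 peptide in 50 mM HEPES pH 7.5, 10 mM MgCl2, 2 mM MnCl2, 1 mM EGTA, 1 mM DTT, 1% DMSO; 60 min kinase reaction then 60 min development at room temperature. IC50 from 10-point 3-fold titrations, percent inhibition vs concentration.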

As usually defined, the pIC50 is −log10 of the IC50, conventionally taken in molar units. Read a high pIC50 as a small IC50. For orientation: inhibition means the relative decrease from the control value, in per cent. A higher inhibition goes with strong suppression. With `C=CC(=O)Nc1cc(Nc2ncc3cccc(-c4ccccc4)c3n2)ccc1N(C)CCN(C)C` [Example C004, N-(2-((2-(dimethylamino)ethyl)(methyl)amino)-5-((8-phenylquinazolin-2-yl)amino)phenyl)acrylamide], the pIC50 in the assay on A431 cells, against BTK, against EGFR (ErbB1) T790M L858R, in the assay with H1975 cells, in the assay on H3255 cells and in the assay on A549 cells was over 7.00 each time. The same molecule showed a pIC50 on EGFR (ErbB1) of under 7.00. Besides, the inhibition at 0.1 µM against BTK, against EGFR (ErbB1) T790M L858R and against EGFR (ErbB1) was over 50% throughout.
For `C=CC(=O)Nc1cc(Nc2ncc3cccc(Cl)c3n2)ccc1N(C)CCN(C)C` [Example C002, N-(5-((8-chloroquinazolin-2-yl)amino)-2-((2-(dimethylamino)ethyl)(methyl)amino)phenyl) acrylamide], the pIC50 is 6.30 to 7.00 in the assay with A431 cells; under 7.00 on BTK; under 7.00 at EGFR (ErbB1) T790M L858R; over 7.00 in the assay with H1975 cells; under 6.30 in the assay on A549 cells; under 7.00 on EGFR (ErbB1).
As to `C=CC(=O)Nc1cc(Nc2ncc3cccc(-c4cncc(F)c4)c3n2)ccc1N(C)CCN(C)C` [Example C022, N-(2-((2-(dimethylamino)ethyl)(methyl)amino)-5-((8-(5-fluoropyridin-3-yl)quinazolin-2-yl)amino)phenyl)acrylamide], the pIC50 is over 7.00 with A431 cells, over 7.00 in the assay on H1975 cells and 6.30 to 7.00 in the assay on A549 cells. For the same molecule, the results for the inhibition at 0.1 µM on BTK, against EGFR (ErbB1) T790M L858R and on EGFR (ErbB1) were over 50%, over 50% and under 50%, respectively.
As for `C=CC(=O)Nc1cc(Nc2ncc3cccc(-c4cccc(Cl)c4)c3n2)ccc1N(C)CCN(C)C` [Example C005, N-(5-((8-(3-chlorophenyl)quinazolin-2-yl)amino)-2-((2-(dimethylamino)ethyl)(methyl)amino)phenyl) acrylamide], the pIC50 in the assay on A431 cells was over 7.00; at EGFR (ErbB1) T790M L858R, over 7.00; in the assay on H1975 cells, over 7.00; in the assay on H3255 cells, over 7.00; in the assay on A549 cells, 6.30 to 7.00; at EGFR (ErbB1) it was under 7.00. For the same molecule, the inhibition at 0.1 µM against BTK, on EGFR (ErbB1) T790M L858R and against EGFR (ErbB1) was over 50% throughout.
Turning to `C=CC(=O)Nc1cc(Nc2ncc3cccc(-c4cccc(F)c4)c3n2)ccc1N(C)CCN(C)C` [Example C006, N-(2-((2-(dimethylamino)ethyl)(methyl)amino)-5-((8-(3-fluorophenyl)quinazolin-2-yl)amino)phenyl)acrylamide], the pIC50 in the assay with A431 cells, on EGFR (ErbB1) T790M L858R, with H1975 cells, with H3255 cells, in the assay on A549 cells and at EGFR (ErbB1) was over 7.00 throughout. In addition, the inhibition at 0.1 µM at BTK, at EGFR (ErbB1) T790M L858R and against EGFR (ErbB1) was over 50% in each case.
